Calls of active or inactive are those of the source. The rule behind the calls is not given here.
Assays:
[1] = biological target: T1, DNA topoisomerase 1 (Homo sapiens) (UniProt P11387); assay: Inhibition of human DNA topoisomerase 1-mediated relaxation of supercoiled DNA at 63 uM
T1 sequence (whole entry): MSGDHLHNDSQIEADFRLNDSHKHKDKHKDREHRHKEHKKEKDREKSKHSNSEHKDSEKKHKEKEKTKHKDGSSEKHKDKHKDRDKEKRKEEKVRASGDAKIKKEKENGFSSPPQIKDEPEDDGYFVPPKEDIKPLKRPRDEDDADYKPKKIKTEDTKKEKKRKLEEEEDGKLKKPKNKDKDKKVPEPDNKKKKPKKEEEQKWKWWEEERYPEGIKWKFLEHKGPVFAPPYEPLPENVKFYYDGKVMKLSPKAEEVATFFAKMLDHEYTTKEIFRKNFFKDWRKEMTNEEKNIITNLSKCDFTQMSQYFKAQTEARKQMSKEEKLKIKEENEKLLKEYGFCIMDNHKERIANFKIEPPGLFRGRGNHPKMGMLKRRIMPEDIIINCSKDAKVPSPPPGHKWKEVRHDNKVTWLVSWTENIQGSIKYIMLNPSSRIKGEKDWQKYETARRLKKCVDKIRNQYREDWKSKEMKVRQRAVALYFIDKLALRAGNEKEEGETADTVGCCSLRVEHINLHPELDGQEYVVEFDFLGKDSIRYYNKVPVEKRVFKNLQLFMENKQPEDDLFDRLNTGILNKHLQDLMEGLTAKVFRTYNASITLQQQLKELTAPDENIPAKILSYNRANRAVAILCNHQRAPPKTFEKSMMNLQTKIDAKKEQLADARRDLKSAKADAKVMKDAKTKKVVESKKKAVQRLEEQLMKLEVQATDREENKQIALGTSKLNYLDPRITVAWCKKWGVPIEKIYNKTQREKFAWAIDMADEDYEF

PANC-1 = assay: Cytotoxicity against human PANC1 cells after 48 hrs by WST8 assay; type: functional; conditions: PANC-1, 48 h
HL-60 = assay: Cytotoxicity against human HL60 cells after 48 hrs by WST8 assay; type: functional; conditions: HL-60, 48 h
[2] = biological target: T1, DNA topoisomerase 1 (Homo sapiens); assay: Inhibition of human DNA topoisomerase 1-mediated relaxation of supercoiled DNA at 63 to 125 uM
A549 = assay: Cytotoxicity against human A549 cells after 48 hrs by WST8 assay; type: functional; conditions: A549, 48 h
[3] = biological target: T1, DNA topoisomerase 1 (Homo sapiens); assay: Inhibition of human DNA topoisomerase 1 assessed as prevention of DNA-enzyme complex formation
[4] = Cytotoxicity against human MRC5 cells after 48 hrs by WST8 assay; type: cell-based
[5] = biological target: T1, DNA topoisomerase 1 (Homo sapiens); assay: Inhibition of human DNA topoisomerase 1 assessed as stabilize DNA-enzyme covalent complex
PC-3 = assay: Cytotoxicity against human PC3 cells after 48 hrs by WST8 assay; type: functional; conditions: PC-3, 48 h
DNA topoisomerase 1 [6] = biological target: T2, DNA topoisomerase 1 (Homo sapiens, UniProt P11387); assay: Inhibition of human DNA topoisomerase 1-mediated relaxation of supercoiled DNA by gel electrophoresis
T2 sequence (P11387 whole entry): T1 sequence (whole entry)

[7] = biological target: DNA topoisomerase 2-alpha (Homo sapiens, UniProt P11388); assay: Inhibition of human DNA topoisomerase 2-mediated relaxation of supercoiled DNA by gel electrophoresis
DNA topoisomerase 1 [8] = biological target: T2, DNA topoisomerase 1; assay: Inhibition of human DNA topoisomerase 1 at free enzyme state
[9] = biological target: T1, DNA topoisomerase 1 (Homo sapiens); assay: Inhibition of human DNA topoisomerase 1-mediated relaxation of supercoiled DNA at 450 uM
[10] = biological target: T1, DNA topoisomerase 1 (Homo sapiens); assay: Inhibition of human DNA topoisomerase 1 assessed as intercalate into DNA at 312 uM
[11] = biological target: T1, DNA topoisomerase 1 (Homo sapiens); assay: Inhibition of human DNA topoisomerase 1-mediated relaxation of supercoiled DNA at 312 uM
[12] = biological target: T1, DNA topoisomerase 1 (Homo sapiens); assay: Inhibition of human DNA topoisomerase 1-mediated relaxation of supercoiled DNA at >125 uM
[13] = Inhibition of Leishmania donovani DNA topoisomerase 1 treated simultaneously with DNA
DNA topoisomerase 1 [14] = biological target: T3, DNA topoisomerase 1 (Rattus norvegicus, UniProt Q9WUL0); assay: Inhibition of rat liver DNA topoisomerase 1 treated simultaneously with DNA
T3 sequence (Q9WUL0 whole entry): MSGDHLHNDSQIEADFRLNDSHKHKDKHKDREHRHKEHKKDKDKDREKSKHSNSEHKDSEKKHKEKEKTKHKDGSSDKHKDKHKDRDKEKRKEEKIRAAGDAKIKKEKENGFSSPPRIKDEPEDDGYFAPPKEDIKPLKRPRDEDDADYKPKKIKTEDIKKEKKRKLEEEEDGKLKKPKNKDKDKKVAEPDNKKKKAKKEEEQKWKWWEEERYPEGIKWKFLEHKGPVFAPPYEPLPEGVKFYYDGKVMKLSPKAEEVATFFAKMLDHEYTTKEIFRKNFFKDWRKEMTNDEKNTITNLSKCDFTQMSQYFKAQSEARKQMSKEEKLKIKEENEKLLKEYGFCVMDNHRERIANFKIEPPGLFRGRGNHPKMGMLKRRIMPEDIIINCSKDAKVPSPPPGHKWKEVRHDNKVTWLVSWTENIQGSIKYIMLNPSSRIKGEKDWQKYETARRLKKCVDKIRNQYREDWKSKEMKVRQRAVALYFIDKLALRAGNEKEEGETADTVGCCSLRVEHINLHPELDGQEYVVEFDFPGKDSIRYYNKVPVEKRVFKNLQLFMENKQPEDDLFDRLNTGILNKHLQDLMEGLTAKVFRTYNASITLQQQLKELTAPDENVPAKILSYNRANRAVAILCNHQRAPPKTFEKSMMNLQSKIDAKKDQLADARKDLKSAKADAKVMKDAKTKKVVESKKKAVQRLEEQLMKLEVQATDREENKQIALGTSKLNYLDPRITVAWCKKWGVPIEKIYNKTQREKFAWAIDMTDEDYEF

DNA topoisomerase 1 [15] = biological target: T3, DNA topoisomerase 1; assay: Inhibition of rat liver DNA topoisomerase 1 preincubated before addition of DNA
[16] = Inhibition of Leishmania donovani DNA topoisomerase 1 preincubated before addition of DNA

Sequence of DNA topoisomerase 2-alpha (P11388 whole entry): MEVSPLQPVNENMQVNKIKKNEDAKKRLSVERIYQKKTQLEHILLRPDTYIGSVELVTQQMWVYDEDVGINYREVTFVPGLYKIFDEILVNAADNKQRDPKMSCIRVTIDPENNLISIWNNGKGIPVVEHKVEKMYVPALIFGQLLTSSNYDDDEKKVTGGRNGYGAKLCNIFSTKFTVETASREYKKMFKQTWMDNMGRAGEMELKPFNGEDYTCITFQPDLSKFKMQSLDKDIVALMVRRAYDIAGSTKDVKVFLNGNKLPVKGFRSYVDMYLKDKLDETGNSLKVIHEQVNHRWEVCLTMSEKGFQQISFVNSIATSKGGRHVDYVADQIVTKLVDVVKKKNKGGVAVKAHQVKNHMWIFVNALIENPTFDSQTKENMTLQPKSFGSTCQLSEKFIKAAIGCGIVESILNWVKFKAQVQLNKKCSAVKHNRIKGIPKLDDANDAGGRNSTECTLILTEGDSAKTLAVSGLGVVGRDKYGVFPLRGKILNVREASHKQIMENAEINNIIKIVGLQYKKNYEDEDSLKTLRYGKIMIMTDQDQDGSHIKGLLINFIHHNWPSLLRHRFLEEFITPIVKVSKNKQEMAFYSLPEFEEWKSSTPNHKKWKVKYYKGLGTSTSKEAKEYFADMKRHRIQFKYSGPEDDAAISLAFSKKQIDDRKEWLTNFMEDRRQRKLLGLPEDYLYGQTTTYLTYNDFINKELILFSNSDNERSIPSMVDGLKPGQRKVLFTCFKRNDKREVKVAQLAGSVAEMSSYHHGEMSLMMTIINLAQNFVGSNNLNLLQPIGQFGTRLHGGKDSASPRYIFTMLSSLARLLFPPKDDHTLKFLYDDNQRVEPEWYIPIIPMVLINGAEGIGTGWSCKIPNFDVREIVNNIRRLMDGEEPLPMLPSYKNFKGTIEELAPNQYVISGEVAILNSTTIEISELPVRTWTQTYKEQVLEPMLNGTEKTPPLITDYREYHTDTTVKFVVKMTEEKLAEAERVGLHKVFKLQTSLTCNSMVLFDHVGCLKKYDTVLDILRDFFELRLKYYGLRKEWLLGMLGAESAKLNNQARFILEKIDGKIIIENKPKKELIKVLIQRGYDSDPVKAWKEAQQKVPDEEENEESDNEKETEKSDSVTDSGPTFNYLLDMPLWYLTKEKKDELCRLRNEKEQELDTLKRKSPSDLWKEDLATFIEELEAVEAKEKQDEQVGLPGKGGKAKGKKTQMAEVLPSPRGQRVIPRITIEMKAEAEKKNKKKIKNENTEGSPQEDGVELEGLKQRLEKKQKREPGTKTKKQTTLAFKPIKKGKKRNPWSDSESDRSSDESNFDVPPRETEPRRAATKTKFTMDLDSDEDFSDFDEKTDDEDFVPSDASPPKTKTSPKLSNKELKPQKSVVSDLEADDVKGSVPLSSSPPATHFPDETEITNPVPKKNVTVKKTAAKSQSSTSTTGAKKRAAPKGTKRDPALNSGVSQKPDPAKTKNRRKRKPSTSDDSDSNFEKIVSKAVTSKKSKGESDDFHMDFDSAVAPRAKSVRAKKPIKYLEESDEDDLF

Compound	inhibition [1]	GI50 (PANC-1)	GI50 (HL-60)	inhibition [2]	GI50 (A549)	inhibition [3]	GI50 at 48 h [4]	inhibition [5]	GI50 (PC-3)	IC50 (DNA topoisomerase 1 [6])	IC50 [7]	IC50 (DNA topoisomerase 1 [8])	inhibition [9]	Activity [10]	inhibition [11]	inhibition [12]	IC50 [13]	IC50 (DNA topoisomerase 1 [14])	IC50 (DNA topoisomerase 1 [15])	IC50 [16]
C/C=C(/C)C(=O)O[C@H]1[C@H](OC(=O)/C(C)=C\C)[C@]2(CO)[C@H](O)C[C@]3(C)C(=CC[C@@H]4[C@@]5(C)CC[C@H](O[C@@H]6O[C@H](C(=O)O)[C@@H](O)[C@H](O[C@@H]7O[C@@H](CO)[C@H](O)[C@H]7O)[C@H]6O[C@@H]6O[C@H](CO)[C@H](O)[C@H](O)[C@H]6O)C(C)(C)[C@@H]5CC[C@]43C)[C@@H]2CC1(C)C	Active	11.9 µM	1.97 µM	Active	6.03 µM	Active	7.43 µM	inactive	3.26 µM	27.1 µM	> 250 µM	23.8 µM	–	–	–	–	–	–	–	–
C/C=C(/C)C(=O)O[C@H]1[C@H](O)[C@]2(CO)[C@H](O)C[C@]3(C)C(=CC[C@@H]4[C@@]5(C)CC[C@H](O[C@@H]6O[C@H](C(=O)O)[C@@H](O)[C@H](O[C@@H]7O[C@@H](CO)[C@H](O)[C@H]7O)[C@H]6O)[C@](C)(CO)[C@@H]5CC[C@]43C)[C@@H]2CC1(C)C [AESCULIOSIDE IID]	Active	10.3 µM	7.5 µM	–	12.9 µM	Active	15.4 µM	inactive	5.51 µM	23.8 µM	> 250 µM	23.8 µM	Active	Active	inactive	–	–	–	–	–
C/C=C(\C)C(=O)O[C@H]1[C@H](OC(=O)/C(C)=C/C)[C@]2(CO)[C@H](O)[C@H](O)[C@]3(C)C(=CC[C@@H]4[C@@]5(C)CC[C@H](O[C@@H]6O[C@H](C(=O)O)[C@@H](O)[C@H](O[C@@H]7O[C@@H](CO)[C@H](O)[C@H]7O)[C@H]6O[C@@H]6O[C@H](CO)[C@@H](O)[C@H](O)[C@H]6O)C(C)(C)[C@@H]5CC[C@]43C)[C@@H]2CC1(C)C [AESCULIOSIDE IIIF]	–	23.5 µM	14.2 µM	Active	> 25 µM	–	> 25 µM	–	11.7 µM	53.7 µM	> 250 µM	–	–	–	–	Active	–	–	–	–
C/C=C(/C)C(=O)O[C@H]1[C@H](OC(C)=O)[C@]2(CO)[C@H](O)C[C@]3(C)C(=CC[C@@H]4[C@@]5(C)CC[C@H](O[C@@H]6O[C@H](C(=O)O)[C@@H](O)[C@H](O[C@@H]7O[C@@H](CO)[C@H](O)[C@H]7O)[C@H]6O[C@@H]6O[C@H](CO)[C@H](O)[C@H](O)[C@H]6O)C(C)(C)[C@@H]5CC[C@]43C)[C@@H]2CC1(C)C [AESCULIOSIDE IIK]	–	21.5 µM	8.75 µM	–	15.1 µM	–	9.89 µM	–	8.35 µM	> 250 µM	> 250 µM	–	–	–	–	Active	–	–	–	–
O=c1cc(-c2ccc(O)c(O)c2)oc2cc(O)cc(O)c12 [LUTEOLIN]	–	–	–	–	–	–	–	–	–	–	–	–	–	–	–	–	14 µM	5 µM	660 nM	2500 nM

— ChEMBL document CHEMBL1157938, “Cytotoxicity and inhibition of DNA topoisomerase I of polyhydroxylated triterpenoids and triterpenoid glycosides” (Bioorg Med Chem Lett, 2010)
